Laboratory results reported in US7291601B1, “Arginine-rich anti-vascular endothelial growth factor peptides that inhibit growth and metastasis of human tumor cells by blocking angiogenesis” (Korea Greencross Corp., priority 1999, dated 2007).
pIC50: −log10 of the molar value.

How the values were obtained:
[1] = molecular target: T1, VEGF (Homo sapiens, UniProt P15692); assay: Inhibition of 125I-labeled VEGF binding to its receptors on HUVEC; settings: for pIC50: HUVEC, peptides at 1, 4, 10 and 20 μM/sequence (FIG. 5)
T1 sequence (P15692 27-191 isoform P15692-4): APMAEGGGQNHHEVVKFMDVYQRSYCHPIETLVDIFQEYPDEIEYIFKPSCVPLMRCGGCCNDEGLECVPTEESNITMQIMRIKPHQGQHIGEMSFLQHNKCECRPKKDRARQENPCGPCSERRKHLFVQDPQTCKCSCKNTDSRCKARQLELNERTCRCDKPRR
Protocol: Then, the cells were transferred to a medium (Medium 199/25 mM HEPES, pH 7.4/0.1% bovine serum albumin) containing 0.2 ng of ^125I-labeled VEGF and various concentrations of peptides or combinatorial peptide libraries and reacted at 4° C. for 3 hours. The cells were washed twice with the same medium and once with PBS containing 0.1% albumin to remove the labeled VEGF which still remained uncombined. Thereafter, to quantify the labeled VEGF which bound to receptors present on the surface of the vascular endothelial cells, the cells were treated with 0.5 ml of a lysis solution (20 mM Tris-HCl, pH 7.4/1% TritonX-100) for 20 min, followed by measuring the resulting lysate for radioactivity with the aid of a γ-counter.
The sequence of each peptide was indirectly decided through the analysis of amino acid compositions and its concentration was determined, after which 12 peptides were assayed for antagonism toward VEGF binding at various concentrations (1, 4, 10, and 20 μM/sequence).

[2] = tested on: VEGF-induced DNA synthesis of HUVEC; assay: VEGF-induced DNA synthesis of HUVEC ([methyl-3H] thymidine); type: cell-based, human; settings: FIG. 10a
Protocol: (§1) In a gelatin-coated 48-well plate (Nunc) HUVEC were cultured at a density of 10^4 cells/well at 37° C. for one day, followed by washing the cells three times with serum-free medium 199. After being added with culture media containing VEGF (10 ng/ml, R&D systems) and various concentrations of the screened peptides, the cells were cultured at 37° C. After 24 hours of culturing, the cells were added with [methyl-^3H] thymidine (0.5 μCi/well) and cultured for an additional one day. Before quantification of the radioactivity used for the DNA synthesis with the aid of a liquid scintillation counter, the cells were washed with PBS containing 0.1% albumin, treated with 0.4 N NaOH at room temperature for 20 min for cell lysis, and neutralized with 2 N HCl. In order to determine the toxicity of the peptides, HUVEC were examined as in above using excess peptide (100 μM) in the absence of VEGF.

[3] = tested on: HUVEC; assay: Toxicity of peptides to HUVEC in the absence of VEGF (thymidine incorporation); type: cell-based, human; settings: 100 μM peptide
Protocol: as §1
With reference to FIG. 10b, the radioactivity of the thymidine inserted into the genome of HUVEC is measured in the absence of no peptides and in the presence of 100 μM of each of the three peptides.

[4] = tested on: egg CAM (chorioallantoic membranes); assay: Egg CAM assay, angiogenesis induced by VEGF; type: in vivo; settings: VEGF 10 ng/egg alone or with 1 μg sample; for Angiogenic activity(%): (standard deviation)
Protocol: Fertilized eggs (Pulmuwon, Korea) were incubated at 37° C. under a humidity of 90%. After three days of culturing, the eggs were deprived of about 2 ml of albumin. After four days, eggs were partially deprived of the sheath to make a window with a size of 2×2 cm.
After VEGF (10 ng/egg) was mixed with various amounts of peptides or other samples, 3 μl of each mixture was dropped onto ¼ fraction pieces of thermanox coverslips (Nunc) and dried. The pieces were placed on CAM of 9-day embryonic eggs.
Two days later, the samples were independently observed under anatomical microscopes by two different persons to determine whether new blood vessels are induced by the dropped samples or not. In this regard, the experiment was repeated at least three times using 10 or more eggs per sample and the results are given in Table 5, below.

[5] = tested on: HT1080 (human fibrosarcoma); assay: Egg CAM assay, angiogenesis induced by VEGF-secreting cancer cells; type: in vivo; settings: for effect on angiogenesis induced by VEGF secreted from human cancer cells: FIG. 12; for Angiogenic activity eggs/total eggs / Angiogenic activity(%): egg CAM, 10^5 HT1080 cells/egg with 0.1 μg peptide; for Angiogenic activity(%): (standard deviation)
Protocol: An experiment using egg CAM was carried out to confirm the inhibitory activity of the screened peptides against the angiogenesis induced by cancer cells, which secrete VEGF. Fertilized eggs were deprived of albumin and windows were formed on the eggs as in above. 10^5 cells of HT1080 (human fibrosarcoma) were mixed with 7.5 μg of Type I collagen (rat tail, Beckton Dickinson, USA) within a volume of 5 μl and dropped onto ¼ fraction pieces of Thermanox coverslips to give collagen sponges. After being covered with the collagen sponges, 10-day embryonic egg CAM was incubated at 37° C. for 3 days. Blood vessels induced by the cancer cells were observed and photographed as in above (see Table 6 and FIG. 12).

[6] = tested on: human fibro-sarcoma cells; assay: Viability of human fibro-sarcoma cells (tetrazolium dye); type: cell-based; settings: 3 days incubation, various concentrations
Protocol: The following experiment was carried out to determine whether peptides antagonistic to VEGF have direct influence on the growth of human fibro-sarcoma cells. After being cultured for one day in a 96-well plate (Nunc), the cancer cells were added with DMEM containing various concentrations of the screened peptides and incubated. To the cells remaining alive after 3 days of incubation, 20 μl of tetrazolium dye (Cell Titer 96 Non-Radioactive Proliferation assay kit, Promega) was added, followed by incubation at 37° C. for 4 hours. The formazan produced by the viable cells was dissolved in 0.2 ml of dimethyl sulfoxide (DMSO) quantified by the absorbance at 570 nm. The absorbance attributed to formazan is proportional to living cells.

[7] = tested on: HM7 (human colon carcinoma cell line); assay: Growth of HM7 cancer cells in vitro (tetrazolium dye); type: cell-based; settings: 5×10^3 cells/well
Source text: In order to conduct an experiment concerning the metastasis of cancer cells to the liver, cancerous cells were transplanted into the spleen. In this regard, after being anesthetized with diethyl ether, 4-week-old male mice (athymic nude mice, BALB/c/nu/nu, Charles River, Japan) underwent flank incision. […] Four weeks after the injection, the liver was excised from each mouse and measured for weight and the size and number of metastatic nodules formed. Each test group was composed of 6-7 mice. In a student's t-test, a p value less than 0.05 was regarded as being statistically significant. In the test using tetrazolium dye (cell titer 96 Non-radioactive Proliferation Assay Kit, Promega), each peptide was evaluated to have no influence on the growth of the cancer cells (5×10^3 cells/well), so that the possibility that the toxicity of the peptide themselves might inhibit the growth and metastasis of cancer cells could be excluded.

[8] = Acute toxicity test on rat upon non-oral administration; type: in vivo; settings: 1 mg/kg, intramuscular injection; for LD50: rat, in vivo, im, SD rats, read-out: lethal dose (LD50)
Protocol: Using specific pathogen-free (SPF) SD rats which were six weeks old, the peptides of Sequences 1, 2, and 3 were tested for acute toxicity. Suspensions of the peptides in 1 ml of PBS were administered at a dose of 1 mg/kg to the rats, which were grouped in twos, by intramuscular injection. […] An autopsy was made of the rats with the naked eye to observe whether their abdominal and thoracic organs were damaged. Neither sudden death nor noticeable clinical symptoms were detected in any of the animals administered with the peptides of interest.

Compound	pIC50 [1]	inhibition of binding of labeled VEGF165 to its receptors ([1]; recombinant labeled VEGF165, FIG. 9)	inhibition of VEGF-induced growth of vascular endothelial cells [2]	direct influence on growth of HUVEC / cytotoxicity to endothelial cells [3]	Angiogenic activity eggs/total eggs [4]	Angiogenic activity(%) [4]	effect on angiogenesis induced by VEGF secreted from human cancer cells [5]	Angiogenic activity eggs/total eggs [5]	Angiogenic activity(%) [5]	direct influence on growth / viability of human fibro-sarcoma cells ([6]; listed as SEQ ID NO: 1)	direct influence on growth / viability of human fibro-sarcoma cells ([6]; listed as Sequence 1)	influence on growth of the cancer cells / cytotoxicity to human colon carcinoma cells [7]	toxic changes to the rats [8]	LD50 [8]	direct influence on growth / viability of human fibro-sarcoma cells ([6]; listed as SEQ ID NO: 2)	direct influence on growth / viability of human fibro-sarcoma cells ([6]; listed as Sequence 2)	direct influence on growth / viability of human fibro-sarcoma cells ([6]; listed as SEQ ID NO: 3)	direct influence on growth / viability of human fibro-sarcoma cells ([6]; listed as Sequence 3)
H-RRKRRR-NH2 [compound 8, NH2-Arg-Arg-Lys-Arg-Arg-Arg-CONH2]	5.70	inhibited	inhibit the VEGF-induced growth of vascular endothelial cells in a dose-dependent pattern	damage neither	4/26	15.6(5.1) %	inhibitory effect	8/22	36.0(8.5) %	no direct influence on human fibro sarcoma cells	damage neither	damage neither	no toxic changes	≥ 1 mg/kg	–	–	–	–
H-RKKRKR-NH2 [compound 1, NH2-Arg-Lys-Lys-Arg-Lys-Arg-CONH2]	5.47	–	inhibit the VEGF-induced growth of vascular endothelial cells in a dose-dependent pattern	damage neither	4/26	15.6(4.5) %	inhibitory effect	10/23	43.0(9.9) %	–	–	damage neither	no toxic changes	≥ 1 mg/kg	no direct influence on human fibro sarcoma cells	damage neither	–	–
N=C(N)NCCC[C@H](NC(=O)[C@H](CCCNC(=N)N)NC(=O)[C@H](CCCNC(=N)N)NC(=O)[C@H](CCCNC(=N)N)NC(=O)[C@H](CCCNC(=N)N)NC(=O)[C@@H](N)CCCNC(=N)N)C(N)=O [compound 11, NH2-Arg-Arg-Arg-Arg-Arg-Arg-CONH2]	5.42	–	inhibit the VEGF-induced growth of vascular endothelial cells in a dose-dependent pattern	damage neither	4/26	15.6(5.1) %	inhibitory effect	10/24	41.0(7.1) %	–	–	damage neither	no toxic changes	≥ 1 mg/kg	–	–	no direct influence on human fibro sarcoma cells	damage neither
